Assay results taken from patent US9481676B2, “Azepino[4,5-B]indoles and methods of use” (Medivation Technologies, Inc., priority 2008, dated 2016).

Columns and labels:
[1] = molecular target: T1, human recombinant serotonin (5-Hydroxytryptamine) 5-HT6 receptor (Homo sapiens, UniProt P50406); assay: Serotonin 5-HT6 radioligand binding ([3H]LSD); conditions: compound at 1 μM; read-out: Serotonin (1 μM) 5-HT6, percent inhibition of specific binding
T1 construct: expressed in transfected cells; host or cells: human HeLa cells
T1 sequence (P50406 whole entry): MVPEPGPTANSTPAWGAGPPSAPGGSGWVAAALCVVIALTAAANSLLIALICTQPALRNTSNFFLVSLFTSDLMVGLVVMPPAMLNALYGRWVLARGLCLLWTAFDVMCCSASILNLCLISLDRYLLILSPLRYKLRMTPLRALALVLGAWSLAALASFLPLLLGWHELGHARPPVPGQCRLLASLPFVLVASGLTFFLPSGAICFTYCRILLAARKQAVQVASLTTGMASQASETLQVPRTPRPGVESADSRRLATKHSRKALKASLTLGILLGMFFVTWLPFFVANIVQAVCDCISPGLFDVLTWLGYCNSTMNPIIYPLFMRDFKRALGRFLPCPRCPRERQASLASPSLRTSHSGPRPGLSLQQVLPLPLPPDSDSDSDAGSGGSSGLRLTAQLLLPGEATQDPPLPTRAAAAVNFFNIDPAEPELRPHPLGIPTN
Experimental: To evaluate in radioligand binding assays the activity of compounds of the invention, human recombinant serotonin (5-Hydroxytryptamine) 5-HT6 receptor expressed in human HeLa cells (Monsma, F. J. Jr. et al., Mol. Pharmacol. 43:320, 1993) in a modified Tris-HCl buffer (50 mM Tris-HCl, pH 7.4, 150 mM NaCl, 2 mM Ascorbic Acid, 0.001% BSA) was used. Compounds of the invention were incubated with 1.5 nM [3H]Lysergic acid diethylamide (LSD) for 120 min. at 37° C. Non-specific binding was estimated in the presence of 5 μM Serotonin (5-HT). Receptor proteins were filtered and washed, the filters were then counted to determine [3H]LSD specifically bound. Compounds were screened at 1 μM or lower, using 1% DMSO as vehicle. Biochemical assay results are presented as the percent inhibition of specific binding in Table 6.

[2] = molecular target: T2, human recombinant dopamine D2L receptor (Homo sapiens, UniProt P14416); assay: Dopamine D2L radioligand binding ([3H]Spiperone); conditions: compound at 1 μM; read-out: Dopamine (1 μM) D2L, percent inhibition of specific binding
T2 construct: expressed in transfected cells; host or cells: CHO cells
T2 sequence (P14416 whole entry): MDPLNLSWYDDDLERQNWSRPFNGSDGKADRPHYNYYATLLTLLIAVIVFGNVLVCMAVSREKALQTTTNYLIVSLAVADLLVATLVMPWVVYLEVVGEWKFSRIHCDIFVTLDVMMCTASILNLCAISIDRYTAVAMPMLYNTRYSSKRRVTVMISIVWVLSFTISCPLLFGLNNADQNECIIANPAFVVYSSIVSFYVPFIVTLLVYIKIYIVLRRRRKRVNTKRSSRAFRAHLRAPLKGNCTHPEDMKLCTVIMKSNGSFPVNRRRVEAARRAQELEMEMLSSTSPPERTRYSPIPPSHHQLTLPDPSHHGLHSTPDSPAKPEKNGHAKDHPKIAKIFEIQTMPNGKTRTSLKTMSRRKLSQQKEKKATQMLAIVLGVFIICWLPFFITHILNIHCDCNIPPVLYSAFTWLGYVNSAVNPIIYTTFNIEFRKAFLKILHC
Experimental: To evaluate in radioligand binding assays the activity of compounds of the invention, human recombinant dopamine D2L receptor expressed in Chinese hamster ovary (CHO) cells (Grandy, D. K. et al. Proc. Natl. Acad. Sci. USA. 86:9762, 1989; Hayes, G. et al., Mol. Endocrinol. 6:920, 1992) in a modified Tris-HCl buffer (50 mM Tris-HCl, pH 7.4, 1.4 mM Ascorbic Acid, 0.001% BSA, 150 mM NaCl) was used. Compounds of the invention were incubated with 0.16 nM [^3H]Spiperone for 120 min. at 25° C. Non-specific binding was estimated in the presence of 10 μM Haloperidol. Receptor proteins were filtered and washed, the filters were then counted to determine [^3H]Spiperone specifically bound. Compounds were screened at 1 μM or lower, using 1% DMSO as vehicle. Biochemical assay results are presented as the percent inhibition of specific binding in Table 5.

[3] = molecular target: T3, human recombinant serotonin (5-Hydroxytryptamine) 5-HT2C receptor (Homo sapiens, UniProt P28335); assay: Serotonin 5-HT2C radioligand binding ([3H]Mesulergine); conditions: compound at 1 μM; read-out: Serotonin (1 μM) 5-HT2C, percent inhibition of specific binding
T3 construct: expressed in transfected cells; host or cells: CHO-K1 cells
T3 sequence (P28335 33-458): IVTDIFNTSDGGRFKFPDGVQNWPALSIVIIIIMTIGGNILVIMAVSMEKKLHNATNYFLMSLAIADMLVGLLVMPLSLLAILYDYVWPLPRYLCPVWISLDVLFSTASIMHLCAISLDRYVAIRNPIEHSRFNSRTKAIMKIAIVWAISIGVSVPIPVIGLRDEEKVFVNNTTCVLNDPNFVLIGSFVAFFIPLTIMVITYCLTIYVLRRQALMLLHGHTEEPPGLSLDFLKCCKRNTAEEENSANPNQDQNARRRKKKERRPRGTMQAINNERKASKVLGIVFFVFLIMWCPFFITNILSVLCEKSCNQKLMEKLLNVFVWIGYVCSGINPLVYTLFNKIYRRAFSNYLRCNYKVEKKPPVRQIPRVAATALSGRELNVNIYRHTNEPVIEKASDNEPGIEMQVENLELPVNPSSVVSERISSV
Experimental: To evaluate in radioligand binding assays the activity of compounds of the invention, human recombinant serotonin (5-Hydroxytryptamine) 5-HT2C receptor expressed in Chinese hamster ovary (CHO-K1) cells (Wolf, W. A. and Schutz, J. S., J. Neurochem. 69:1449, 1997) in a modified Tris-HCl buffer (50 mM Tris-HCl, pH 7.4, 0.1% Ascorbic Acid, 10 μM Pargyline) was used. Compounds of the invention were incubated with 1 nM [^3H]Mesulergine for 60 min. at 25° C. Non-specific binding was estimated in the presence of 1 μM Mianserin. Receptor proteins were filtered and washed, the filters were then counted to determine [^3H]Mesulergine specifically bound. Compounds were screened at 1 μM or lower, using 1% DMSO as vehicle. Biochemical assay results are presented as the percent inhibition of specific binding in Table 6.

[4] = molecular target: T4, human recombinant serotonin (5-Hydroxytryptamine) 5-HT2A receptor (Homo sapiens, UniProt P28223); assay: Serotonin 5-HT2A radioligand binding ([3H]Ketanserin); conditions: compound at 1 μM; read-out: Serotonin (1 μM) 5-HT2A, percent inhibition of specific binding
T4 construct: expressed in transfected cells; host or cells: CHO-K1 cells
T4 sequence (P28223 whole entry): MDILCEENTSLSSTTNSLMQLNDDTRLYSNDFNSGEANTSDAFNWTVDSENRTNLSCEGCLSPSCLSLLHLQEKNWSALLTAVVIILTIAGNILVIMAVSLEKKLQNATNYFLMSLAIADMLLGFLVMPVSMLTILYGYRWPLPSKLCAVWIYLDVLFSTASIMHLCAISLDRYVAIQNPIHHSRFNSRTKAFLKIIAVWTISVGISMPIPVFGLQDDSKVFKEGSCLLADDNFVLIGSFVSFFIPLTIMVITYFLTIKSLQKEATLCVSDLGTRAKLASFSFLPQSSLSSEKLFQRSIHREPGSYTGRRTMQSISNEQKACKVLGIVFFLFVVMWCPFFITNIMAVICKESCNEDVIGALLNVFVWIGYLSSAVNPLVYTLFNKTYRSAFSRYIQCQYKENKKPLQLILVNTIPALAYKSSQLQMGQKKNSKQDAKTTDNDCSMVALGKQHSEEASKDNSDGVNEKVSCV
Experimental: To evaluate in radioligand binding assays the activity of compounds of the invention, human recombinant serotonin (5-Hydroxytryptamine) 5-HT2A receptor expressed in Chinese hamster ovary (CHO-K1) cells (Bonhaus, D. W. et al. Br. J. Pharmacol. 115:622, 1995; Saucier, C. and Albert, P. R., J. Neurochem. 68:1998, 1997) in a 50 mM Tris-HCl buffer, pH 7.4, was used. Compounds of the invention were incubated with 0.5 nM [^3H]Ketanserin for 60 min. at 25° C. Non-specific binding was estimated in the presence of 1 μM Mianserin. Receptor proteins were filtered and washed, the filters were then counted to determine [^3H]Ketanserin specifically bound. Compounds were screened at 1 μM or lower, using 1% DMSO as vehicle. Biochemical assay results are presented as the percent inhibition of specific binding in Table 6.

[5] = molecular target: T5, human recombinant histamine H1 receptor (Homo sapiens, UniProt P35367); assay: Histamine H1 radioligand binding ([3H]Pyrilamine); conditions: compound at 1 μM; read-out: Histamine Binding (1 μM) H1, percent inhibition of specific binding
T5 construct: expressed in transfected cells; host or cells: CHO cells
T5 sequence (P35367 whole entry): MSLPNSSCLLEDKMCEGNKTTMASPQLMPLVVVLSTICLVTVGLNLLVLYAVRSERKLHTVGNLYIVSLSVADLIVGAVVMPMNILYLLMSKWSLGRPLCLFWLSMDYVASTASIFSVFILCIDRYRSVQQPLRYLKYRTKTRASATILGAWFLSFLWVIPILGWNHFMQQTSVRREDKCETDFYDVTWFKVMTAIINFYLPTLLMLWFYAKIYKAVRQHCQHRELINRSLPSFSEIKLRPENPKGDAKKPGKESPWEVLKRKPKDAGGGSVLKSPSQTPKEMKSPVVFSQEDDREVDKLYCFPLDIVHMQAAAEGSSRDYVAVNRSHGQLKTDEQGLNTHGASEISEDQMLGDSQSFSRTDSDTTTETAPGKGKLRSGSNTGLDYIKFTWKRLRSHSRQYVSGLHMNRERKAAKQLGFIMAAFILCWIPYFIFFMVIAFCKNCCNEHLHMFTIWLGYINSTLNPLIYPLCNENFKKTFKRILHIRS
Experimental: To evaluate in radioligand binding assays the activity of compounds of the invention, human recombinant histamine H1 receptor expressed in Chinese hamster ovary (CHO) cells (De Backer, M. D. et al., Biochem. Biophys. Res. Comm. 197(3):1601, 1993) in a modified Tris-HCl buffer (50 mM Tris-HCl, pH 7.4, 2 mM MgCl2, 100 mM NaCl, 250 mM Sucrose) was used. Compounds of the invention were incubated with 1.2 nM [^3H]Pyrilamine for 180 min. at 25° C. Non-specific binding was estimated in the presence of 1 μM pyrilamine. Receptor proteins were filtered and washed, the filters were then counted to determine [^3H]Pyrilamine specifically bound. Compounds were screened at 1 μM or lower, using 1% DMSO as vehicle. Biochemical assay results are presented as the percent inhibition of specific binding in Table 6.

[6] = molecular target: T6, human recombinant histamine H2 receptor (Homo sapiens, UniProt P25021); assay: Histamine H2 radioligand binding ([125I]Aminopotentidine); conditions: compound at 1 μM; read-out: Histamine Binding (1 μM) H2, percent inhibition of specific binding
T6 construct: expressed in transfected cells; host or cells: CHO-K1 cells
T6 sequence (P25021 whole entry): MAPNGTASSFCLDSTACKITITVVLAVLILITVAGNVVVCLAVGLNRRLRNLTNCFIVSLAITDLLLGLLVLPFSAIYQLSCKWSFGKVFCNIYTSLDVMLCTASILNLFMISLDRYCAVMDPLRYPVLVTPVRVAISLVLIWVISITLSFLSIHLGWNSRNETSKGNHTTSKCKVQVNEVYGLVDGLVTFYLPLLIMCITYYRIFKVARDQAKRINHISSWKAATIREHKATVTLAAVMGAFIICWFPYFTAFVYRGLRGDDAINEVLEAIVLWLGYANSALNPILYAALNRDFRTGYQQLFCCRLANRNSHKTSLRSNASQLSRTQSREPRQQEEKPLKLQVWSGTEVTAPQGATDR
Experimental: To evaluate in radioligand binding assays the activity of compounds of the invention, human recombinant histamine H2 receptor expressed in Chinese hamster ovary (CHO) K1 cells (Ruat, M., Proc. Natl. Acad. Sci. USA. 87(5):1658, 1990) in a 50 mM Phosphate buffer, pH 7.4 was used. Compounds of the invention were incubated with 0.1 nM [^125I]Aminopotentidine for 120 min. at 25° C. Non-specific binding was estimated in the presence of 3 μM Tiotidine. Receptor proteins were filtered and washed, the filters were then counted to determine [^125I]Aminopotentidine specifically bound. Compounds were screened at 1 μM or lower, using 1% DMSO as vehicle. Biochemical assay results are presented as the percent inhibition of specific binding in Table 6.

brain cells (neurons) = conditions: preclinical models of Alzheimer's disease and Huntington's disease; cited from earlier work
[7] = system: cells treated with the cell toxin ionomycin; conditions: cited from earlier work
[8] = system: neurite outgrowth and neurogenesis; conditions: cited from earlier work
[9] = after treatment with the cell toxin ionomycin

SMILES | inhibition at 1 µM [1] [%] | inhibition at 1 µM [2] [%] | inhibition at 1 µM [3] [%] | inhibition at 1 µM [4] [%] | inhibition at 1 µM [5] [%] | inhibition at 1 µM [6] [%] | death of brain cells (neurons) (brain cells (neurons)) | mitochondrial function [7, 9] | number of surviving cells [7, 9] | mitochondrial function of cells ([7]; setting of cellular stress) | neurite outgrowth and neurogenesis [8]
COc1ccc(C#Cn2c3c(c4cc(C)ccc42)CCN(C)CC3)cc1F [Compound No. 284, 6-((3-fluoro-4-methoxyphenyl)ethynyl)-3,9-dimethyl-1,2,3,4,5,6-hexahydroazepino[4,5-b]indole] | 42 | 11 | 100 | 94 | 11 | 4 |  |  |  |  | 
Cc1ccc2c(c1)c1c(n2CCc2ccc(C)nc2)CCN(C)C1 [Dimebon, dimebon] |  |  |  |  |  |  | inhibit the death of brain cells (neurons) | improved mitochondrial function | increased the number of surviving cells | improve the mitochondrial function of cells in the setting of cellular stress with very high potency | promote neurite outgrowth and neurogenesis
